For this test, the target named is human GlyT1c transporter (Homo sapiens (Human), UniProt P48067). As to the kind of experiment: Radioligand binding assay using recombinant CHO cell membranes expressing human GlyT1. The following applies: read-out: radioligand binding Kiapp. Here is the method:
2. Radioligand binding assays using recombinant CHO cell membranes expressing human GlyT1:
Radioligand binding to human GlyT1c transporter-expressing membranes was determined as described in Mezler et al., Molecular Pharmacology 74:1705-1715, 2008.

SMILES strings stand for the structures. Some results are limits rather than exact numbers.

This is an account of results in patent publication US9045459B2, “Phenalkylamine derivatives, pharmaceutical compositions containing them, and their use in therapy” (AbbVie Deutschland GmbH & Co. KG, priority 2010, dated 2015).

Sequence of human GlyT1c transporter (P48067 whole entry): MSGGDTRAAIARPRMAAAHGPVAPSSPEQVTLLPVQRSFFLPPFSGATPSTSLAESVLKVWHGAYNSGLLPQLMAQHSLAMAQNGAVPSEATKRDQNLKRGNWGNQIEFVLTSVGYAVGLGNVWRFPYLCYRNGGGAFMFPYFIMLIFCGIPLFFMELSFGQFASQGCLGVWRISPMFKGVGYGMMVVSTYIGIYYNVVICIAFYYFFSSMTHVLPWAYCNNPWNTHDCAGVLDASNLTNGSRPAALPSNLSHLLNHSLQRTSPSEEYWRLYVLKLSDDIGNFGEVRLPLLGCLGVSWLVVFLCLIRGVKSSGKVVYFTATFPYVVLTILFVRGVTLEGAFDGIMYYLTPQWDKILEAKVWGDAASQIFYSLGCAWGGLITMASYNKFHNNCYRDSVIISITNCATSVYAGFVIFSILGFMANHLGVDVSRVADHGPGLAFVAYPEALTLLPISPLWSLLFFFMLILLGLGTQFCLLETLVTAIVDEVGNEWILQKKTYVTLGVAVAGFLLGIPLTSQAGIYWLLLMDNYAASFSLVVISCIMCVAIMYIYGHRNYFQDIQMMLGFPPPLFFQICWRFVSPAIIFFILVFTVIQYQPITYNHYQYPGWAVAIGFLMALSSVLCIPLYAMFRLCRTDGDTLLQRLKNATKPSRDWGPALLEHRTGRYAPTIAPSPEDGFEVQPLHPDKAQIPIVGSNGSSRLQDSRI

With `Cn1cnc(S(=O)(=O)N2CCc3ccc(C(CN)Cc4ccccc4)cc3C2)c1` (centres unmarked) [Example 1, 2-(2-(1-Methyl-1H-imidazol-4-ylsulfonyl)-1,2,3,4-tetrahydroisoquinolin-7-yl)-3-phenylpropan-1-amine], the Ki is no more than 10 µM. The result for `Cn1cc(S(=O)(=O)N2CCc3ccc(C(CN)Cc4ccccc4)cc3C2)cn1` (centres unmarked) [Example 2, 2-(2-(1-Methyl-1H-pyrazol-4-ylsulfonyl)-1,2,3,4-tetrahydroisoquinolin-7-yl)-3-phenylpropan-1-amine] reads no more than 10 µM.
